Measured values reported in patent US10519111B2, “UV absorbing compounds, compositions comprising same and uses thereof” (CORAL SUNSCREEN PTY LTD, priority 2013, dated 2019).
One block for each compound: values may come before it.

Key:
[1] = Critical wavelength (λcrit), approximate in-house measurement; type: physicochemical
Source text: As the precise test for critical wavelength was unable to be replicated exactly by the inventors due to the need for specialist equipment and a specific calibration of the spectrophotometer, these values are only approximate to a degree. […] This represents a highly useful result and so, compounds based around this benzoyl substitution pattern shown, are especially preferred.

[2] = UV absorption properties (λmax, molar extinction coefficient ε, efficiency E 1%, 1 cm); type: physicochemical
[3] = Table 7, values in order of the λmax values
[4] = Table 13B, miscellaneous compounds
[5] = Table 13B, values in order of the λmax values
[6] = Table 13B, values in order of the λmax values, in M-1 cm-1
[7] = Table 3, compounds from isocyanates or isothiocyanates

λcrit ([1]; Table 7): 363 nm | λmax ([2]; Table 7, unsaturated compounds): 330 nm | E (1%, 1 cm) [2, 3]: 915 | ε [2, 3]: 20500 M⁻¹ cm⁻¹
SMILES: C=CC(=O)C1=CN(CC(C)C)CCC1(C)C [drawing 112]

λcrit ([1]; Table 13B): 379 nm | λmax [2, 4]: 360 nm | E (1%, 1 cm) [2, 5]: 1030 | ε [2, 6]: 56032
SMILES: CC1(C)CCN(c2ccc(N3C=C(C(=O)CC4CCCCC4)C(C)(C)CC3)cc2)C=C1C(=O)CC1CCCCC1

λcrit ([1]; Table 13B): 365 nm | λmax [2, 4]: 314 nm | E (1%, 1 cm) [2, 5]: 391 | ε [2, 6]: 26421
SMILES: CC1(C)CCN(C(C)(C)C)C=C1C(=O)N(Cc1ccc(CN(C(=O)C2=CN(C(C)(C)C)CCC2(C)C)c2ccccc2)cc1)c1ccccc1

λcrit ([1]; Table 11): 358 nm | E (1%, 1 cm) ([2]; Table 11): 707 | λmax ([2]; Table 11, compounds from mixed anhydrides): 339 nm | ε ([2]; Table 11, in M-1 cm-1): 30745
SMILES: CC1(C)CCN(c2ccc(C(C)(C)C)cc2)C=C1C(=O)C1c2ccccc2-c2ccccc21 [drawing 158]

λcrit ([1]; Table 12): 365 nm | E (1%, 1 cm) ([2]; Table 12): 268 | ε ([2]; Table 12): 8000 M⁻¹ cm⁻¹ | λmax ([2]; Table 12, 2-substituted compounds): 338 nm
SMILES: CCC(=O)C1=C(c2ccccc2)N(CC(C)C)CCC1(C)C [drawing 163]

λcrit ([1]; Table 13B): 388 nm | λmax [2, 4]: 391 nm | E (1%, 1 cm) [2, 5]: 369 | ε [2, 6]: 24359
SMILES: CC1(C)CCN(C(C)(C)C)C=C1C(=O)/C=C/c1ccc(/C=C/C(=O)C2=CN(C(C)(C)C)CCC2(C)C)c([N+](=O)[O-])c1

λcrit ([1]; Table 6B): 355 nm | E (1%, 1 cm) ([2]; Table 6B): 732 | λmax ([2]; Table 6B, N-tert-butyl compounds): 317 nm | ε ([2]; Table 6B, in M-1 cm-1): 33982
SMILES: CC1(C)CCN(C(C)(C)C)C=C1C(=O)c1ccc(C(=O)C2=CN(C(C)(C)C)CCC2(C)C)cc1 [drawing 97]

λcrit ([1]; Table 13B): 378 nm | λmax [2, 4]: 358 nm | E (1%, 1 cm) [2, 5]: 550 | ε [2, 6]: 33000
SMILES: CC(C)=CCCC(C)CC(=O)C1=CN(c2ccc(N3C=C(C(=O)CC(C)CCC=C(C)C)C(C)(C)CC3)cc2)CCC1(C)C (stereo not shown) [drawing 213]

λcrit ([1]; Table 3): 326 nm | Ε (1%, 1 cm) ([2]; Table 3): 1217 | λmax [2, 7]: 308 nm | ε ([2]; Table 3, in M-1 cm-1): 34834
SMILES: CC1(C)CCN(C(C)(C)C)C=C1C(=O)Nc1ccccc1 [drawing 57]

λcrit ([1]; Table 13B): 361 nm | λmax [2, 4]: 315 nm | E (1%, 1 cm) [2, 5]: 737 | ε [2, 6]: 26695
SMILES: CC1(C)CCN(C(C)(C)C)C=C1C(=O)c1ccc(Nc2ccccc2)cc1

λcrit ([1]; Table 9): 348 nm | E (1%, 1 cm) ([2]; Table 9): 985 | λmax ([2]; Table 9, C3-trifluoroacetylated N-aryl enamines): 325 nm | ε ([2]; Table 9, in M-1 cm-1): 32790
SMILES: CC1(C)CCN(c2cccc3ccccc23)C=C1C(=O)C(F)(F)F [drawing 143]

λcrit ([1]; Table 13B): 360 nm | λmax [2, 4]: 316 nm | E (1%, 1 cm) [2, 5]: 626 | ε [2, 6]: 21545
SMILES: CCCCNc1ccc(C(=O)C2=CN(C(C)(C)C)CCC2(C)C)cc1

λcrit ([1]; Table 13B): 377 nm | λmax [2, 4]: 357 nm | E (1%, 1 cm) [2, 5]: 1290 | ε [2, 6]: 52638
SMILES: CCC(=O)C1=CN(c2ccc(N3C=C(C(=O)CC)C(C)(C)CC3)cc2)CCC1(C)C

λcrit ([1]; Table 10): 363 nm | E (1%, 1 cm) ([2]; Table 10): 335 | λmax ([2]; Table 10, bis and mono enamine compounds): 253 nm | ε ([2]; Table 10, in M-1 cm-1): 10016 | shoulder in the λmax column ([2]; Tables 5, 10, 13B): 315 nm
SMILES: Cc1nn(C)c(N2C=CC(C)(C)C=C2)c1C(=O)C(F)(F)F [drawing 153]

λcrit ([1]; Table 13B): 385 nm | λmax [2, 4]: 374 nm | E (1%, 1 cm) [2, 5]: 434 | ε [2, 6]: 19194
SMILES: CC(C)(C)CC(C)(C)N1C=C(C(=O)/C=C/c2ccc(/C=C/C(=O)Cl)cc2)C(C)(C)CC1

λcrit ([1]; Table 3): 314 nm | Ε (1%, 1 cm) ([2]; Table 3): 619 | λmax [2, 7]: 289 nm | ε ([2]; Table 3, in M-1 cm-1): 31072
SMILES: CC1(C)CCN(C(C)(C)C)C=C1C(=O)NCCCCCCNC(=O)C1=CN(C(C)(C)C)CCC1(C)C [drawing 59]

λcrit ([1]; Table 7): 386 nm | λmax ([2]; Table 7, unsaturated compounds): 364 nm | E (1%, 1 cm) [2, 3]: 493 | ε [2, 3]: 16150 M⁻¹ cm⁻¹
SMILES: COc1ccc(/C=C/C(=O)C2=CN(CC(C)C)CCC2(C)C)cc1 [drawing 114]

λcrit ([1]; Table 13B): 379 nm | λmax [2, 4]: 359 nm | E (1%, 1 cm) [2, 5]: 447 | ε [2, 6]: 37068
SMILES: CCCCCCCCCCCCCCCCCC(=O)C1=CN(c2ccc(N3C=C(C(=O)CCCCCCCCCCCCCCCCC)C(C)(C)CC3)cc2)CCC1(C)C

λcrit ([1]; Table 3): 312 nm | Ε (1%, 1 cm) ([2]; Table 3): 799 | λmax [2, 7]: 288 nm | ε ([2]; Table 3, in M-1 cm-1): 22531
SMILES: CCCCNC(=O)C1=CN(C(C)(C)C)CCC1(C)C [drawing 61]

λcrit ([1]; Table 8b): 349 nm | E (1%, 1 cm) ([2]; Table 8b): 928 | λmax ([2]; Table 8b, N-phenyl compounds): 328 nm | ε ([2]; Table 8b, in M-1 cm-1): 52737
SMILES: Cc1ccc(N2C=C(C(=O)CCCCCCCCC(=O)C3=CN(c4ccc(C)cc4)CCC3(C)C)C(C)(C)CC2)cc1 [drawing 131]

λcrit ([1]; Table 13B): 352 nm | λmax [2, 4]: 326 nm | E (1%, 1 cm) [2, 5]: 567 | ε [2, 6]: 46937
SMILES: CC1(C)CCN(c2ccc(C(C)(C)C)cc2)C=C1C(=O)N(Cc1ccc(CN(C(=O)C2=CN(c3ccc(C(C)(C)C)cc3)CCC2(C)C)c2ccccc2)cc1)c1ccccc1
